# Patent US9510595B2, “Pesticidal mixtures” (Syngenta Participations AG, priority 2012, dated 2016)
# Tests used:
# [1] = tested on: Heliothis virescens (Tobacco Budworm); experiment: Heliothis virescens egg/larval mortality on artificial diet, 24-well plate; type: in vivo; conditions: for DMET observed control %: DMET alone; for 2-7 Observe control %: 2-7 alone; for SPAT observed control %: SPAT alone; for 1-1 observed control %: 1-1 alone
# Method: Heliothis virescens (Tobacco Budworm)
# Eggs (0-24 h old) are placed in 24-well microtiter plate on artificial diet and treated with test solutions (DMSO) by pipetting. After an incubation period of 4 days, samples are checked for larval mortality.
# (§1) When a compound applied alone gave no control at a particular rate, it is assumed that lower rates of that compound alone also give no control. DMET=deltamethrin, SPAT=spirotetramat, 1-1 is compound 1 in Table 1, 2-7 is compound 7 in Table 2.
# [2] = tested on: Tetranychus urticae (Two-Spotted Spider Mite); experiment: Tetranychus urticae mixed population mortality on sprayed bean leaf discs; type: in vivo; conditions: for 2-7 observed control %: 2-7 alone; for SPAT observed control %: SPAT alone
# Excerpt: Tetranychus urticae (Two-Spotted Spider Mite)
# Bean leaf discs on agar in 24-well microtiter plates are sprayed with test solutions (DMSO). After drying, the leaf discs are infested with mite populations of mixed ages. 8 days later, discs are checked for mixed population mortality.
# as §1
compound,measurement,setting,value
"CC1(C)[C@H](C(=O)O[C@H](C#N)c2cccc(Oc3ccccc3)c2)[C@@H]1C=C(Br)Br [DMET, deltamethrin]",DMET observed control %,[1]; 0.0125 ppm,0%
same,DMET observed control %,[1]; 0.025 ppm,0%
same,DMET observed control %,[1]; 0.05 ppm,0%
same,DMET observed control %,[1]; 0.1 ppm,0%
same,DMET observed control %,[1]; 0.2 ppm,0%
same,DMET observed control %,[1]; 0.4 ppm,0%
same,DMET observed control %,[1]; 0.8 ppm,0%
N#Cc1cc(C2=NCC(c3cc(Cl)c(Cl)c(Cl)c3)(C(F)(F)F)C2)ccc1-n1cncn1 (racemic) [2-7],2-7 Observe control %,[1]; 0.025 ppm,0%
same,2-7 Observe control %,[1]; 0.05 ppm,10%
same,2-7 Observe control %,[1]; 0.1 ppm,55%
same,2-7 Observe control %,[1]; 0.2 ppm,80%
same,2-7 Observe control %,[1]; 0.4 ppm,90%
same,2-7 observed control %,[2]; 0.187 ppm,0%
same,2-7 observed control %,[2]; 0.375 ppm,0%
same,2-7 observed control %,[2]; 0.75 ppm,25%
same,2-7 observed control %,[2]; 1.5 ppm,75%
same,2-7 observed control %,[2]; 3.0 ppm,80%
"CCOC(=O)OC1=C(c2cc(C)ccc2C)C(=O)N[C@]12CC[C@@H](OC)CC2 [SPAT, spirotetramat]",SPAT observed control %,[1]; 1.56 ppm,0%
same,SPAT observed control %,[1]; 3.12 ppm,0%
same,SPAT observed control %,[1]; 3.125 ppm,0%
same,SPAT observed control %,[1]; 6.25 ppm,0%
same,SPAT observed control %,[1]; 12.5 ppm,0%
same,SPAT observed control %,[1]; 25 ppm,0%
same,SPAT observed control %,[1]; 50 ppm,0%
same,SPAT observed control %,[1]; 100 ppm,0%
same,SPAT observed control %,[1]; 200 ppm,60%
same,SPAT observed control %,[2]; 1.56 ppm,0%
same,SPAT observed control %,[2]; 3.125 ppm,0%
same,SPAT observed control %,[2]; 12.5 ppm,65%
same,SPAT observed control %,[2]; 25 ppm,80%
same,SPAT observed control %,[2]; 50 ppm,85%
same,SPAT observed control %,[2]; 100 ppm,85%
same,SPAT observed control %,[2]; 200 ppm,85%
N#Cc1cc(C2=NOC(c3cc(Cl)cc(Cl)c3)(C(F)(F)F)C2)ccc1-n1cncn1 (racemic) [1-1],1-1 observed control %,[1]; 0.78 ppm,0%
same,1-1 observed control %,[1]; 1.56 ppm,0%
same,1-1 observed control %,[1]; 3.125 ppm,45%
same,1-1 observed control %,[1]; 6.25 ppm,85%
same,1-1 observed control %,[1]; 12.5 ppm,85%
same,1-1 observed control %,[1]; 25 ppm,90%
